The record followed here is ChEMBL document CHEMBL4715915, “Identification of madangamine A as a novel lysosomotropic agent to inhibit autophagy” (2021).

Calls of active or inactive are those of the source. No cut-off for these calls is given here.

Assay [1] deals with HeLa. The assay can be described thus: Inhibition of autophagy in human HeLa cells assessed as increase in lysosomal pH at 10 uM after 24 hrs by LysoTracker Red DND-99 staining based fluorescence microscopic method. Format: functional, cell-based.
The subject of assay [2] is HeLa. The assay can be described thus: Antiproliferative activity against human HeLa cells assessed as cell viability at 1 uM after 24 hrs by MTT assay relative to control. Conditions: read-out: Activity. Format: functional.
Assay [3] relates to HeLa. The assay can be described thus: Modulation of autophagy in human HeLa cells assessed as increase in LC3-2 protein level at 1 to 20 uM after 24 hrs by Western blot analysis. It is filed as functional, cell-based. As to conditions: dose 1-20 µM.
In assay [4] the test system is HeLa. The assay can be described thus: Inhibition of autophagy in human HeLa cells assessed as increase in P62 protein level at 1 to 20 uM after 24 hrs by Western blot analysis. As to conditions: dose 1-20 µM. Format: functional, cell-based.
Assay [5] has as its system HeLa. The experiment in a line: Antiproliferative activity against human HeLa cells assessed as cell viability at 20 uM after 24 hrs by MTT assay relative to control. It is filed as functional. As to conditions: read-out: Activity.
The test system of assay [6] is HeLa. The assay can be described thus: Antiproliferative activity against human HeLa cells assessed as cell viability at 10 uM after 24 hrs by MTT assay relative to control. It is filed as functional. Conditions: read-out: Activity.
Assay [7] has as its system HeLa. The experiment in a line: Induction of autophagosome formation in human HeLa cells assessed as increase in LC3 puncta at 10 uM after 24 hrs by Alexa Fluor 488 staining based fluorescence microscopic analysis. Format: functional, cell-based.
Assay [8] has as its system HeLa. The experiment in a line: Induction of autophagosome formation in human HeLa cells assessed as increase in LC3 puncta at 10 uM after 24 hrs in presence of Baf A1 by Alexa Fluor 488 staining based fluorescence microscopic analysis. Format: functional, cell-based.
In assay [9] the test system is HeLa. The experiment in a line: Induction of autophagosome formation in human HeLa cells assessed as increase in LC3 puncta at 10 uM after 6 hrs in presence of rapamycin by Alexa Fluor 488 staining based fluorescence microscopic analysis. It is filed as functional, cell-based.
The subject of assay [10] is HT-1080. The experiment in a line: Induction of autophagosome formation in HT-1080 cells assessed as increase in LC3 puncta at 10 uM after 24 hrs by Alexa Fluor 488 staining based fluorescence microscopic analysis. It is filed as functional, cell-based. As to conditions: Homo sapiens.
The test system of assay [11] is SK-MEL-28. The assay can be described thus: Induction of autophagosome formation in SK-MEL-28 cells assessed as increase in LC3 puncta at 10 uM after 24 hrs by Alexa Fluor 488 staining based fluorescence microscopic analysis. Format: functional, cell-based. Conditions: Homo sapiens.
Assay [12] concerns HeLa. The experiment in a line: Modulation of autophagy in human HeLa cells assessed as increase in LC3-2 protein level at 10 uM after 24 hrs in presence of Baf A1 by Western blot analysis. Format: functional, cell-based.
In assay [13] the test system is HeLa. The assay can be described thus: Modulation of autophagy in human HeLa cells assessed as increase in LC3-2 protein level at 10 uM after 24 hrs in presence of chloroquine by Western blot analysis. It is filed as functional, cell-based.
For assay [14], the system named is HeLa. The assay can be described thus: Inhibition of autophagy in human HeLa cells assessed as increase in P62 protein level at 10 uM after 24 hrs in presence of Baf A1 by Western blot analysis. It is filed as functional, cell-based.
Assay [15] deals with HeLa. The assay can be described thus: Inhibition of autophagy in human HeLa cells assessed as increase in P62 protein level at 10 uM after 24 hrs in presence of chloroquine by Western blot analysis. Format: functional, cell-based.
Assay [16] has as its system HeLa. The assay can be described thus: Inhibition of autophagy in human HeLa cells assessed as decrease in cathepsin B at 10 nM after 24 hrs by immunoblot analysis. Format: functional, cell-based.
Assay [17] has as its system HeLa. The assay can be described thus: Induction of autophagy in human HeLa cells assessed as decrease in P62 protein level at 1 uM after 24 hrs by Western blot analysis. Format: functional, cell-based.
For assay [18], the system named is HeLa. The assay can be described thus: Inhibition of autophagy in human HeLa cells assessed as increase in P62 protein level at 10 nM after 24 hrs by Western blot analysis. It is filed as functional, cell-based.
The test system of assay [19] is HeLa. The experiment in a line: Induction of autophagosome formation in human HeLa cells assessed as increase in LC3 puncta at 10 nM after 24 hrs by Alexa Fluor 488 staining based fluorescence microscopic analysis. Format: functional, cell-based.
The test system of assay [20] is HeLa. The assay can be described thus: Inhibition of autophagy in human HeLa cells assessed as increase in lysosomal pH at 10 nM after 24 hrs by LysoTracker Red DND-99 staining based fluorescence microscopic method. Format: functional, cell-based.

As to `CCN(CC)CCCC(C)Nc1ccnc2cc(Cl)ccc12` (stereo unspecified), the inhibition result in [1] is “Active”.

On to `C1=C\C/C=C\CC[C@@]23CN(CC/C=C\C/1)C[C@H]1C/C4=C/C/C=C\CCCCN(C2)[C@@H]4C[C@H]13`, for which the viability at 1 µM in assay [2] worked out at 95.2%. Further, the outcome in assay [3], in [7], in assay [8], in assay [10] and in [11] was Active. Moreover, the inhibition result in [4], in [12], in [13], in assay [14], in assay [15] and in assay [1] was “Active” each time. In addition, the inhibition result in [16] is “Active”. Besides, in [5], the viability at 20 µM stood at 1.4%. The viability at 10 µM in [6] came to 2.9%. The result in assay [9] was inactive.

For `CO[C@H]1C[C@@H]2CC[C@@H](C)[C@@](O)(O2)C(=O)C(=O)N2CCCC[C@H]2C(=O)O[C@H]([C@H](C)C[C@@H]2CC[C@@H](O)[C@H](OC)C2)CC(=O)[C@H](C)/C=C(\C)[C@@H](O)[C@@H](OC)C(=O)[C@H](C)C[C@H](C)/C=C/C=C/C=C/1C`, in [17], the outcome was Active.

As to `CO/C1=C\C(C)=C\[C@@H](C)[C@@H](O)[C@@H](C)C/C(C)=C/C=C/[C@H](OC)[C@@H]([C@@H](C)[C@@H](O)[C@H](C)[C@@]2(O)C[C@@H](O)[C@H](C)[C@@H](C(C)C)O2)OC1=O`, the inhibition result in assay [18] is “Active”. Further, the outcome in [19] was Active. Moreover, the inhibition entry in assay [20] was “inactive”.
